Values after ≈ are worked out from the molar mass of the structure shown.
How the values were obtained:
Format in all cases: functional
Carpophilus [1] = test: Reduction of feeding rate in adult Carpophilus hemipterus at 100 ppm dietary level relative to control; parameters: scale not given: the % may be the effect or the level left
Carpophilus [2] = test: Reduction of feeding rate in Carpophilus hemipterus larvae at 100 ppm dietary level relative to control; parameters: scale not given: the % may be the effect or the level left
[3] = Cytotoxicity against human NCI60 cells

Row | SMILES | Activity (Carpophilus [1]) [%] | Activity (Carpophilus [2]) [%] | GI50 [3] [µg/mL]
1 | COc1c(-c2ccc(O)cc2)c(O)cc2c1oc1cc(O)c(OCC=C(C)C)cc12 [ARENARIN A] | 13 | 13 | 4.8 (≈ 11.8 µM)
2 | C=C(C)C1Cc2c(ccc(O)c2OC/C=C(\C)CO)C2=C1C(=O)C(c1ccc(O)cc1)=C(OC)C2=O (stereo unspecified) [ARENARIN B] | 20 | – | 3.8 (≈ 7.78 µM)
3 | C=C(C)C1Cc2c(ccc(OC)c2OC/C=C(\C)CO)C2=C1C(=O)C(c1ccc(O)cc1)=C(OC)C2=O (stereo unspecified) [ARENARIN C] | 13 | – | –
